This note sets out measurements from ChEMBL document CHEMBL3714751, “Diaminopyrimidines as P2X3 and P2X2/3 modulators” (2009).

Data set [1] addresses T1, P2X purinoceptor 3 (Rattus norvegicus) (UniProt P49654).
T1 sequence (whole entry): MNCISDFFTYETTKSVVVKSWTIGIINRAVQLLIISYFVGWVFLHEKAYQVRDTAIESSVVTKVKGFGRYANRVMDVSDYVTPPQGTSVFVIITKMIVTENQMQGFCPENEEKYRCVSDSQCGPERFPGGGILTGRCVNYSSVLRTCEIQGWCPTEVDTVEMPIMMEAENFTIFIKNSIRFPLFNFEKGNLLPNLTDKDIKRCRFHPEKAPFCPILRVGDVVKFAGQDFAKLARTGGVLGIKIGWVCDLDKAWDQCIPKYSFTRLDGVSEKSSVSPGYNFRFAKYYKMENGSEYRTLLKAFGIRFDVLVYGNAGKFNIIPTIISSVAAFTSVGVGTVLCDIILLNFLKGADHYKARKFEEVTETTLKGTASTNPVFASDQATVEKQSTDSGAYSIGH
The data set can be described thus: Antagonist activity against rat P2X3 receptor expressed in CHOK1 cells assessed as inhibition of alpha,beta-meATP-induced calcium response incubated for 20 mins by Fluo-3AM dye based FLIPR assay. Conditions: CHO-K1. In kind it is functional, cell-based.

The subject of data set [2] is Canis familiaris. The data set can be described thus: Cmax in dog assessed as 5-(5-Iodo-2-iso-propyl-4-methoxy-phenoxy)-pyrimidine-2,4-diamine level at 0.127 mmol administered orally by gavage after 24 hrs by HPLC method. In kind it is ADME, organism-based, Canis lupus familiaris. On the set-up: dose 0.127 mmol, route oral. Conditions: in vivo, po.
The subject of data set [3] is Canis familiaris. The data set can be described thus: AUC in dog assessed as 5-(5-Iodo-2-iso-propyl-4-methoxy-phenoxy)-pyrimidine-2,4-diamine level at 0.127 mmol administered orally by gavage after 24 hrs by HPLC method. In kind it is ADME, organism-based, Canis lupus familiaris. Details: dose 0.127 mmol, time < 24 hr, route oral. The following applies: in vivo, po.

SMILES strings stand for the structures. Calls of active or inactive are those of the source. No cut-off for these calls is given here.

On to `CCCNCC(=O)Nc1ncc(Oc2cc(I)c(OC)cc2C(C)C)c(N)n1`, for which the inhibition entry in data set [1] was “Active”.
The same measure, in the same setting: in the case of `COc1cc(C(C)C)c(Oc2cnc(NC(=O)CNCC3CC3)nc2N)cc1I` it was “Active”; in that of `COc1cc(C(C)C)c(Oc2cnc(NC(=O)CNC3CCCC3)nc2N)cc1I`, “Active”.
Still for that read-out and setting: in the case of `COc1cc(C(C)C)c(Oc2cnc(NC(=O)CNC3CCN(C)CC3)nc2N)cc1I` it was “Active”; in that of `COc1cc(C(C)C)c(Oc2cnc(NC(=O)CNC3CCC3)nc2N)cc1I`, “Active”.
On the same count and under the same terms, the result for `COc1cc(C(C)C)c(Oc2cnc(NC(=O)CN3CCCC3)nc2N)cc1I` reads “Active”; that for `CCN(CCCCO)CC(=O)Nc1ncc(Oc2cc(I)c(OC)cc2C(C)C)c(N)n1`, “Active”; that for `COc1cc(C(C)C)c(Oc2cnc(NC(=O)CN3CCOCC3)nc2N)cc1I`, “Active”.
Take `COc1cc(C(C)C)c(Oc2cnc(NC(=O)CNC3CCCCC3)nc2N)cc1I`: the inhibition entry in data set [1] is “Active”.
For the compound `COc1cc(C(C)C)c(Oc2cnc(NC(=O)CN(C)C3CCCCC3)nc2N)cc1I`, in data set [1], the inhibition entry was “Active”.
On the same count and under the same terms, the result for `CCC(CC)NCC(=O)Nc1ncc(Oc2cc(I)c(OC)cc2C(C)C)c(N)n1` reads “Active”; that for `COc1cc(C(C)C)c(Oc2cnc(NC(=O)CN3CCN(C)CC3)nc2N)cc1I`, “Active”.
Same read-out and setting: in the case of `COc1cc(C(C)C)c(Oc2cnc(NC(=O)CN(C)C)nc2N)cc1I` it was “Active”.
Same read-out and setting: in the case of `C#Cc1cc(Oc2cnc(NC(=O)CN3CCN(C)CC3)nc2N)c(C(C)C)cc1OC` it was “Active”.
With `COc1cc(C(C)C)c(Oc2cnc(NC(=O)CN3CCC(C(C)=O)CC3)nc2N)cc1I`, the inhibition entry in data set [1] is “Active”.
The same measure, in the same setting: in the case of `COc1cc(C(C)C)c(Oc2cnc(NC(=O)CNC3CCC(C)CC3)nc2N)cc1I` (stereo not drawn) it was “Active”; in that of `COc1cc(C(C)C)c(Oc2cnc(NC(=O)CN3CCCCC3)nc2N)cc1I`, “Active”.
As for `COCCNCC(=O)Nc1ncc(Oc2cc(I)c(OC)cc2C(C)C)c(N)n1`, in data set [1], the inhibition result was “Active”.
As to `COc1cc(C(C)C)c(Oc2cnc(NC(=O)CNC(C)(C)C)nc2N)cc1I`, the inhibition entry in data set [1] is “Active”.
Same read-out and setting: in the case of `COc1cc(C(C)C)c(Oc2cnc(NC(=O)CN3CCC(N)CC3)nc2N)cc1I` it was “Active”.
Same read-out and setting: the result for `COc1cc(C(C)C)c(Oc2cnc(NC(=O)CN3CCN(CCCO)CC3)nc2N)cc1I` reads “Active”.
Still for that read-out and setting: in the case of `COc1cc(C(C)C)c(Oc2cnc(NC(=O)CN3CC(C)OC(C)C3)nc2N)cc1I` (stereo not drawn) it was “Active”; in that of `COc1cc(C(C)C)c(Oc2cnc(NC(=O)CN3CCN(CCO)CC3)nc2N)cc1I`, “Active”.
Broadly, the Cmax is the peak of the concentration-time curve. As usually defined, the AUC is concentration integrated over time. Turning to `CCCN(CCC)CC(=O)Nc1ncc(Oc2cc(I)c(OC)cc2C(C)C)c(N)n1`, the highest concentration (Cmax) in the data set on Canis familiaris [2] is 120 ng/mL. The area under the curve (AUC) with Canis familiaris [3] was 372 ng·h/mL. In addition, the inhibition entry in data set [1] is “Active”.
For `COc1cc(C(C)C)c(Oc2cnc(NC(=O)CNCC(C)C)nc2N)cc1I`, the inhibition result in data set [1] was “Active”.
Same read-out and setting: the result for `COc1cc(C(C)C)c(Oc2cnc(NC(=O)CN3CCNCC3)nc2N)cc1I` reads “Active”.
